This is an account of results in ChEMBL document CHEMBL3525943, “Regiospecific and stereospecific triangulation of the structures of metabolites formed by sequential metabolism at multiple prochiral centers” (Drug Metab Dispos, 2012).

In general, bioavailability refers to dose-corrected exposure relative to a reference, in per cent. Low readings indicate little systemic uptake, high ones much systemic uptake. Usually clearance stands for the rate of elimination divided by the concentration. Read a low clearance as a low capacity for elimination.

Data set [1] in a line: Oral bioavailability in rat. Type of data set: ADME, organism-based. To be noted: in vivo.
Data set [2] in a line: Volume of distribution at steady state in rat. To be noted: in vivo, read-out: Vdss. The data set is classed as ADME, organism-based.
Data set [3] can be described thus: Clearance in iv dosed rat. Type of data set: ADME, organism-based. As to conditions: in vivo.
Data set [4] is described as follows: Plasma protein binding in rat. As to conditions: read-out: PPB (converted). The data set is classed as ADME, cell-free.
A short description of data set [5]: Plasma protein binding in human. Type of data set: ADME, cell-free. As to conditions: read-out: PPB (converted).
A further data set relates to Rattus norvegicus. Description: Total drug recovery in female Sprague-Dawley rat treated with [14C]-AMG 221 at 2 mg/kg, po measured over 48 hrs by liquid scintillation counting analysis. As to conditions: in vivo. Details: dose 2 mg/kg, route oral. Type of data set: ADME, organism-based.
The nature of data set [6]: Drug level in Sprague-Dawley rat urine treated with [14C]-(S)-2-((1R,2S,4R,5S)-5-hydroxybicyclo[2.2.1]heptan-2-ylamino)-5-isopropyl-5-methylthiazol-4(5H)-one at 5 mg/kg, po measured over 24 hrs by LC-MS/HPLC radiometric analysis. Type of data set: ADME, organism-based. On the set-up: dose 5 mg/kg, route oral. As to conditions: in vivo.
Data set [7] is described as follows: Retention time of the compound in Sprague-Dawley rat urine treated with [14C]-AMG 221 at 2 mg/kg, po after 12 hrs by LC-MS/HPLC radiometric analysis. The data set is classed as ADME, organism-based. Details: dose 2 mg/kg, route oral. To be noted: in vivo.
Data set [8] can be described thus: Drug excretion in female Sprague-Dawley rat urine treated with [14C]-AMG 221 at 2 mg/kg, po measured over 24 hrs by LC-MS/HPLC radiometric analysis. Type of data set: ADME, organism-based. Details: dose 2 mg/kg, route oral. As to conditions: in vivo.
Data set [9] can be described thus: Drug excretion in female Sprague-Dawley rat feces treated with [14C]-AMG 221 at 2 mg/kg, po measured over 24 hrs by LC-MS/HPLC radiometric analysis. As to conditions: in vivo. On the set-up: dose 2 mg/kg, route oral. The data set is classed as ADME, organism-based.
A short description of data set [10]: Drug excretion in male Sprague-Dawley rat urine treated with [14C]-AMG 221 at 2 mg/kg, po measured over 24 hrs by LC-MS/HPLC radiometric analysis. The data set is classed as ADME, organism-based. On the set-up: dose 2 mg/kg, route oral. As to conditions: in vivo.
Data set [11] is described as follows: Drug excretion in male Sprague-Dawley rat feces treated with [14C]-AMG 221 at 2 mg/kg, po measured over 24 hrs by LC-MS/HPLC radiometric analysis. Type of data set: ADME, organism-based. On the set-up: dose 2 mg/kg, route oral. As to conditions: in vivo.
For data set [12], the system named is Plasma. Nature of the data set: Retention time of the compound in Beagle dog plasma treated with [14C]-AMG 221 at 2 mg/kg, po measured at 0.5 hrs by LC-MS/HPLC radiometric analysis. Type of data set: ADME, organism-based, Canis lupus familiaris. Details: dose 2 mg/kg, route oral. As to conditions: in vivo.
Data set [13] can be described thus: Drug level in Sprague-Dawley rat urine treated with [14C]-AMG 221 at 2 mg/kg, po measured over 24 hrs by LC-MS/HPLC radiometric analysis. The data set is classed as ADME, organism-based. Details: dose 2 mg/kg, route oral. As to conditions: in vivo.
Data set [14] is described as follows: Retention time of the compound in Beagle dog urine treated with [14C]-AMG 221 at 2 mg/kg, po measured over 24 hrs by LC-MS/HPLC radiometric analysis. To be noted: in vivo. Details: dose 2 mg/kg, route oral. Type of data set: ADME, organism-based, Canis lupus familiaris.
The nature of data set [15]: Retention time of the compound in Sprague-Dawley rat urine treated with [14C]-AMG 221 at 2 mg/kg, po measured over 24 hrs by LC-MS/HPLC radiometric analysis. On the set-up: dose 2 mg/kg, route oral. To be noted: in vivo. The data set is classed as ADME, organism-based.
For data set [16], the system named is Liver microsome. Nature of the data set: Drug level in rat liver microsomes treated with (S)-2-((1S,2S,4R,6R)-6-hydroxybicyclo[2.2.1]heptan-2-ylamino)-5-isopropyl-5-methylthiazol-4(5H)-one at 20 uM preincubated for 5 mins followed by NADPH addition measured after 60 mins by LC-MS/MS analysis. As to conditions: 1 h. Type of data set: ADME. (Liver microsomes are vesicles of endoplasmic reticulum, rich in cytochrome P450 enzymes.)

In data set [17] the test system is Liver microsome. Description: Retention time of the compound in rat liver microsomes treated with (S)-2-((1S,2S,4R)-bicyclo[2.2.1]heptan-2-ylamino)-5-(2-hydroxypropan-2-yl)-5-methylthiazol-4(5H)-one at 20 uM preincubated for 5 mins followed by NADPH addition measured after 60 mins by LC-MS/MS analysis. The data set is classed as ADME. To be noted: 1 h.
In data set [18] the test system is Liver microsome. Description: Retention time of the compound in rat liver microsomes treated with ((S)-2-((1S,2S,4R)-bicyclo[2.2.1]heptan-2-ylamino)-5-(2-hydroxypropan-2-yl)-5-methylthiazol-4(5H)-one at 20 uM preincubated for 5 mins followed by NADPH addition measured after 60 mins by LC-MS/MS analysis. The data set is classed as ADME. As to conditions: 1 h.
Data set [19] deals with Liver microsome. Nature of the data set: Retention time of the compound in rat liver microsomes treated with [14C]-(S)-2-((1R,2S,4R,5S)-5-hydroxybicyclo[2.2.1]heptan-2-ylamino)-5-isopropyl-5-methylthiazol-4(5H)-one at 40 uM preincubated for 5 mins followed by NADPH addition measured after 60 mins by LC-MS/MS-radiometric analysis. The data set is classed as ADME. As to conditions: 1 h.

A short description of data set [20]: Retention time of the compound in urine of bile duct cannulated Sprague-Dawley rat treated with [14C]-(S)-2-((1R,2S,4R,5S)-5-hydroxybicyclo[2.2.1]heptan-2-ylamino)-5-isopropyl-5-methylthiazol-4(5H)-one at 5 mg/kg, po measured over 48 hrs by LC-MS/HPLC radiometric analysis. Type of data set: ADME, organism-based. Details: dose 5 mg/kg, route oral. To be noted: in vivo.

Data set [21] relates to Plasma. Nature of the data set: Retention time of the compound in Sprague-Dawley rat plasma treated with [14C]-AMG 221 at 2 mg/kg, po measured at 0.5 hrs by LC-MS/HPLC radiometric analysis. The data set is classed as ADME, organism-based. On the set-up: dose 2 mg/kg, route oral. To be noted: in vivo.
Data set [22] concerns Liver microsome. Nature of the data set: Retention time of the compound in rat liver microsomes treated with (S)-2-((1S,2S,4R)-bicyclo[2.2.1]heptan-2-ylamino)-5-((S)-1-hydroxypropan-2-yl)-5-methylthiazol-4(5H)-one at 20 uM preincubated for 5 mins followed by NADPH addition measured after 60 mins by LC-MS/MS analysis. Type of data set: ADME. As to conditions: 1 h.
The nature of data set [23]: Retention time of the compound in bile duct cannulated Sprague-Dawley rat bile treated with [14C]-(S)-2-((1R,2S,4R,5S)-5-hydroxybicyclo[2.2.1]heptan-2-ylamino)-5-isopropyl-5-methylthiazol-4(5H)-one at 5 mg/kg, po measured over 48 hrs by LC-MS/HPLC radiometric analysis. The data set is classed as ADME, organism-based. Details: dose 5 mg/kg, route oral. As to conditions: in vivo.

Molecule `CC(C)[C@]1(C)SC(N[C@H]2C[C@@H]3CC[C@H]2C3)=NC1=O` returned a bioavailability in [1] of 30%. In data set [2], the Vd stood at 1 L/kg. The molecule also gave a clearance in data set [3] of 3 L/h/kg. The fraction unbound in data set [4] and in [5] was 0.15 each time.

Molecule `CC(C)[C@]1(C)SC(N[C@H]2C[C@H]3C[C@@H]2CC3=O)=NC1=O` came in with a Drug recovery in the data set with Rattus norvegicus of 9.1%. Also, the Drug metabolism result in data set [6] is given as “metabolite_detected”. The Retention_time in data set [7] was 33.3 min.

In the data set on Rattus norvegicus, `CC(C)[C@]1(C)SC(N[C@H]2C[C@H]3C[C@@H]2[C@H](O)C3)=NC1=O` yielded a Drug recovery of 3.2%. The Drug excretion in [8] is listed as 37%; in [9], 37%; in data set [10], 29%; in data set [11], 29%. In [7], the Retention_time turned out to be 33 min.

Consider `C=C(C)[C@]1(C)SC(N[C@H]2C[C@@H]3CC[C@H]2C3)=NC1=O`, for which the Retention_time in the data set on Plasma [12] is reported as 40.7 min.

As to `C[C@@H](CO)[C@]1(C)SC(N[C@H]2C[C@H]3C[C@@H]2[C@H](O)C3)=NC1=O`, in the data set with Rattus norvegicus, the Drug recovery is 0.9%. The Drug excretion amounted to 24% in [8], 24% in [9], 8.3% in [10] and 8.3% in data set [11]. In addition, the Drug metabolism result (in data set [13]; with Liver microsome [16]) was “metabolite_detected” each time. Moreover, the values for the Retention_time (in data set [14]; in data set [15]; with Liver microsome [17]) were 15.1 min, 15.1 min and 15.7 min, respectively.

`CC(C)(O)[C@]1(C)SC(N[C@H]2C[C@H]3C[C@@H]2[C@H](O)C3)=NC1=O` displayed a Retention_time in the data set on Liver microsome [18] of 16.8 min. The same molecule gave a Drug recovery with Rattus norvegicus of 2.4%. The Drug excretion in [8] was found to be 24%; in [9], 24%; in data set [10], 8.3%; in data set [11], 8.3%. The Drug metabolism entry in the data set with Liver microsome [16] is “metabolite_detected”.

As for `CC(C)(O)[C@]1(C)SC(N[C@H]2C[C@H]3C[C@@H]2C[C@@H]3O)=NC1=O`, the Drug excretion worked out at 24% in data set [8], 24% in data set [9], 8.3% in data set [10] and 8.3% in [11]. Further, the Retention_time in the data set on Liver microsome [19] and in the data set with Liver microsome [17] was 11.5 min each time.

Regarding `C[C@@H](CO)[C@]1(C)SC(N[C@H]2C[C@H]3C[C@@H]2C[C@H]3O)=NC1=O`, in [20], the Retention_time turned out to be 12.8 min. In the data set with Rattus norvegicus, this molecule showed a Drug recovery of 0.1%. Also, the Drug excretion is 24% in data set [8], 24% in data set [9], 8.3% in data set [10] and 8.3% in data set [11].

Take `CC(C)(O)[C@]1(C)SC(N[C@H]2C[C@@H]3CC[C@H]2C3)=NC1=O`: the Drug recovery with Rattus norvegicus came to 0.9%. For the same molecule, the Drug excretion in data set [8] was 37%; in [9] it was 37%; in [10] it was 29%; in data set [11], 29%. Moreover, in the data set on Plasma [21], the Retention_time was determined as 38.5 min.

In data set [20], `CC(C)(O)[C@]1(C)SC(N[C@H]2C[C@H]3C[C@@H]2C[C@H]3O)=NC1=O` yielded a Retention_time of 12.8 min. Also, the Drug excretion in data set [8] amounted to 24%; in [9], 24%; in data set [10], 8.3%; in data set [11], 8.3%.

In turn, `C[C@@H](CO)[C@]1(C)SC(N[C@H]2C[C@H]3C[C@@H]2C[C@@H]3O)=NC1=O` came in with a Drug recovery in the data set with Rattus norvegicus of 2.9%. Besides, the Drug excretion in data set [8] was 24%; in data set [9], 24%; in data set [10] it was 8.3%; in data set [11], 8.3%. Moreover, the Retention_time in the data set with Liver microsome [19] and with Liver microsome [22] was 11.5 min in each case.

In the case of `CC(C)[C@]1(C)SC(N[C@H]2C[C@H]3C[C@@H]2C[C@H]3O[C@@H]2O[C@H](C(=O)O)[C@@H](O)[C@H](O)[C@H]2O)=NC1=O`, in the data set with Rattus norvegicus, the Drug recovery worked out at 0.2%. Also, in data set [23], the Retention_time is 25.2 min.

`C[C@H](CO)[C@]1(C)SC(N[C@H]2C[C@H]3C[C@@H]2C[C@@H]3O)=NC1=O` gave a Drug recovery in the data set on Rattus norvegicus of 1.2%. Further, the Drug excretion in data set [8] came out at 24%; in data set [9] it was 24%; in data set [10] it was 8.3%; in data set [11], 8.3%. Moreover, the Drug metabolism result in [6] was “metabolite_detected”. Besides, the Retention_time in [15] was found to be 7.2 min.

Take `C[C@H](CO)[C@]1(C)SC(N[C@H]2C[C@@H]3CC[C@H]2C3)=NC1=O`: the Drug recovery in the data set on Rattus norvegicus worked out at 2.6%. Besides, the Drug excretion in data set [8] was 37%; in data set [9], 37%; in [10], 29%; in data set [11] it was 29%. Moreover, the Retention_time in data set [7] is 34.6 min.

With `C[C@@H](CO)[C@]1(C)SC(N[C@H]2C[C@@H]3CC[C@H]2C3)=NC1=O`, the Drug recovery in the data set with Rattus norvegicus came out at 0.8%. Besides, the Drug excretion in data set [8] is reported as 37%; in data set [9], 37%; in data set [10] it was 29%; in data set [11], 29%. For the same molecule, in [7], the Retention_time was 37.5 min.
